We go through two compounds from US8697366B2, “Anti-cancer drug screening method using RORα” (Seoul National University Industry Foundation, priority 2009, dated 2014).

“Also recorded” adds a separate entry of the source.

Common to all, as to type: cell-based
The test system of one test is RORα. Nature of the test: Phosphorylation of RORα in HCT116 cells (immunoprecipitation / immunoblot with anti-phospho-Ser or anti-phospho-RORαS35 antibody). Here is the method: (A) Schematic representation of RORα showing the location of the N-terminal domain (NTD), the DNA-binding domain (DBD), the hinge region, the ligand-binding domain (LBD), and the AF-2 domain. […] HEK293 cells were cotransfected with plasmids expressing each His-tagged RORα deletion construct and β-catenin. Whole cell extracts (left panel) and Ni^+-NTA-agarose pulldown materials (right panel) were analyzed by immunoblotting against anti-β-catenin IgG or anti-Xpress IgG. (C) Illustration of the structure of deletion fragments of RORα(SEQ ID NO:17). (D) Interaction of each RORα deletion construct with HisMax-β-catenin was assessed by Ni^+-NTA-agarose pulldown assay. […] The phosphorylated peptide samples were analyzed by LC-MS analysis. […] Immunoprecipitation assay was conducted with anti-Flag antibody, and the phosphorylated RORα was detected by immunoblot analysis with anti-phospho-Ser antibody. […] The reaction samples were subjected to 12% SDSPAGE, and phosphorylated RORα was detected by autoradiography. […] The fluorescence-conjugated secondary antibody was visualized using fluorescence microscopy, and nuclear staining with DAPI was shown.
(A) The specificity of the antibody raised against phosphorylated RORαS35 peptide (SEQ ID NO:18) was assessed by dot blot analysis. (B) Treatment of TPA increased phophorylated RORα on S35 site as assessed by immunoprecipitation with anti-phospho-RORαS35 antibody. […]

Test [1] relates to binding of RORα to β-catenin. Nature of the test: Coimmunoprecipitation of RORα with β-catenin in HCT116 cells. Here is the method: (§1) (A) The specificity of the antibody raised against phosphorylated RORαS35 peptide (SEQ ID NO:18) was assessed by dot blot analysis. (B) Treatment of TPA increased phophorylated RORα on S35 site as assessed by immunoprecipitation with anti-phospho-RORαS35 antibody. […] (D) Treatment of Go6976, a PKCα inhibitor, abolished TPA-dependent phosphorylation of RORα as assessed by immonoblotting with anti-phospho-RORαS35 antibody. (E) HCT116 cells were transfected with Flag-RORα WT, S35D, or S35A, and the cell extracts were immunoprecipitated with anti-Flag antibody followed by immunoblotting against anti-β-catenin antibody. (F) Coimmunoprecipitation assay of β-catenin with either RORαWT or S35A in HCT116 cells after treatment with TPA in the absence or presence of Go6976. (G) ChIP analysis on the cyclin D1 promoter after transfection with Flag-RORαWT, S35A, or S35D in HCT116 cells. (H) ChIP analysis on the cyclin D1 promoter in HCT116 cells after TPA treatment for indicated time. (I) ChIP assay was performed on the cyclin D1 promoter in the absence or presence of siRNA against PKCα with treatment of TPA for 90 min. (J) Real-time quantitative RT-PCR analysis of the cyclin D1 transcript in HCT116 cells in the presence of TPA for indicated time. (K) Knockdown effect of siRNA against RORα or PKCα was assessed in the expression of the cyclin D1 transcript in HCT116 cells.

The subject of another test is cyclin D1 promoter. The experiment in a line: ChIP assay on the cyclin D1 promoter in HCT116 cells. On the procedure: as §1
(B) Cyclin D1 transcript was measured after introducing siRNAs against RORα or PKCα in the presence of Wnt5a in HCT116 cells. (C) Real-time quantitative RTPCR analysis of the cyclin D1 transcript in HCT116 cells after introducing RORα, S35A, or S35D in the presence of Wnt5a. (D) […] on the cyclin D1 promoter with treatment of either TPA or Wnt5a in HCT116 cells. Occupancy of the cyclin D1 promoter by phosphorylated RORα, β-catenin, RNA polymerase II, H3K9me2, H3K4me2, CBP, pCAF, p300, or SMRT was indicated. (E) Transwell cell migration assay for RORα, RORαS35A, or RORαS35D-expressing HCT116 cells with treatment of Wnt5a. Values are represented as mean±s.d. for three independent experiments. (F) The anchorage-independent growth of HCT116 cells expressing RORα, RORαS35A, or RORαS35D in soft agar. Values are expressed as mean±SEM for two experiments in 6 place wells. Colonies were counted in 10 different fields and total colony number/well was calculated. Representative image is shown for each group.
The ChIP, two-step ChIP, and shRNA-coupled ChIP assays were conducted as previously described (Baek et al., 2002; Kim et al., 2005).

In the next test the test system is cyclin D1 transcript. Nature of the test: Real-time quantitative RT-PCR of the cyclin D1 transcript in HCT116 cells. On the procedure: The abundance of mRNA was detected by an ABI prism 7300 system with SYBR Green (molecular probes). Primer pairs were designed to amplify 90-150 bp mRNA specific fragments, and confirmed to be unique products by melting curve analysis. The PCR conditions were 95° C. (5 min) and 40 cycles of 95° C. (30 s), 57° C. (30 s), and 72° C. (30 s).
The quantity of mRNA was calculated using the ΔΔCt method and normalized by using primers to detect β-actin or HPRT. All reactions were performed in triplicates.

As to `Cn1c2ccccc2c2c3c(c4c5ccccc5n(CCC#N)c4c21)CNC3=O` [Go6976], the “TPA-induced phosphorylation of RORα” value with RORα (in presence of TPA, anti-phospho-RORαS35 immunoblot) was “abolished”. Also, the “TPA-induced increased binding of RORα to β-catenin” value in test [1] (TPA plus Go6976) is “almost completely abolished”.

On to `CCCCCCCCCCCCCC(=O)O[C@@H]1[C@@H](C)[C@@]2(O)[C@@H](C=C(CO)C[C@]3(O)C(=O)C(C)=C[C@@H]23)[C@@H]2C(C)(C)[C@]12OC(C)=O` [TPA, 12-O-tetradecanoylphorbol-13acetate], for which, in the test on RORα (HCT116 cells, treatment alone), the “phosphorylation of RORα” value is given as “increased phosphorylation”. In test [1] (TPA treatment), the “binding of RORα to β-catenin” value was “significantly increased”. Further, in the test on cyclin D1 promoter, the “RNA polymerase II recruitment on the cyclin D1 promoter” value is on record as “concomitant decrease; also recorded: decreased”; the “methylation of histone H3K9 on the cyclin D1 promoter” value is given as “increased methylation”; the “recruitment of CBP, p300, and pCAF coactivators to the cyclin D1 promoter” value is “significantly decreased”; the “recruitment of β-catenin on the cyclin D1 promoter” value is “not altered”. For the same compound, in the test with cyclin D1 promoter (anti-phospho-RORαS35 IgG), the “recruitment of phosphorylated RORα on the cyclin D1 promoter” value was “increased the recruitment”. Besides, in the test with cyclin D1 transcript, the “cyclin D1 transcript” value is given as “downregulation”.
